pIC50: −log10 of the molar value. Activity calls are given as the source filed them. The calls are words filed in the database; no cut-off is given here.
Assays:
MDA-MB-231 [1] = experiment: Induction cell cycle arrest in human MDA-MB-231 cells assessed as accumulation at S phase at 0.1 uM measured after 48 hrs by PI staining based flow cytometry (reference value: 36%); type: functional
4T1 = experiment: Antiproliferative activity against mouse 4T1 cells assessed as inhibition rate incubated for 72 hrs by MTT assay; type: functional, cell-based; settings: 4T1, 72 h
MDA-MB-435 = experiment: Antiproliferative activity against human MDA-MB-435 cells assessed as inhibition rate incubated for 72 hrs by MTT assay; type: functional, cell-based; settings: MDA-MB-435, 72 h
HCT-116 = experiment: Antiproliferative activity against human HCT-116 cells assessed as inhibition rate incubated for 72 hrs by MTT assay; type: functional, cell-based; settings: HCT-116, 72 h
MDA-MB-231 [2] = experiment: Antiproliferative activity against human MDA-MB-231 cells assessed as inhibition rate incubated for 72 hrs by MTT assay; type: functional, cell-based; settings: MDA-MB-231, 72 h
MDA-MB-231 [3] = experiment: Induction of apoptosis in human MDA-MB-231 cells assessed as changes in cell morphology and nuclei at 0.1 to 0.4 uM by Hoechst 33342 staining based fluorescence microscopy; type: functional; settings: dose 0.1-0.4 µM
MDA-MB-231 [4] = experiment: Inhibition of PI3K in human MDA-MB-231 cells assessed as Akt phosphorylation at 0.4 uM measured after 48 hrs by Western blot analysis; type: cell-based
MDA-MB-231 [5] = experiment: Induction cell cycle arrest in human MDA-MB-231 cells assessed as accumulation at G2 phase at 0.1 uM measured after 48 hrs by PI staining based flow cytometry (reference value: 10.2%); type: functional
MDA-MB-231 [6] = experiment: Induction of apoptosis in human MDA-MB-231 cells assessed as increase in cleaved caspase-3 expression at 0.1 to 0.4 uM measured after 48 hrs by Western blot analysis; type: functional, cell-based; settings: dose 0.1-0.4 µM
Breast carcinoma cell [7] = experiment: Antitumour activity against human TNBC breast carcinoma cell tissue xenografted PDTX SCID mouse model assessed as reduction in Ki67 expression level at 5 to 20 mg/kg treated for 7 days by immunohistochemical analysis; type: functional, organism-based; settings: dose 5-20 mg/kg, time 7.0 day
MDA-MB-231 [8] = experiment: Induction cell cycle arrest in human MDA-MB-231 cells assessed as accumulation at G1 phase at 0.1 uM measured after 48 hrs by PI staining based flow cytometry (reference value: 53.7%); type: functional
MDA-MB-231 [9] = experiment: Induction cell cycle arrest in human MDA-MB-231 cells assessed as increase in p53 expression at 0.4 uM measured after 48 hrs by Western blot analysis; type: functional, cell-based
[10] = molecular target: T1, DNA topoisomerase 1 (Homo sapiens) (UniProt P11387); experiment: Inhibition of topoisomerase 1 (unknown origin) assessed as relaxation of supercoiled plasmid pBR322 DNA at 50 uM incubated for 15 mins by agarose gel electrophoresis
T1 sequence (whole entry): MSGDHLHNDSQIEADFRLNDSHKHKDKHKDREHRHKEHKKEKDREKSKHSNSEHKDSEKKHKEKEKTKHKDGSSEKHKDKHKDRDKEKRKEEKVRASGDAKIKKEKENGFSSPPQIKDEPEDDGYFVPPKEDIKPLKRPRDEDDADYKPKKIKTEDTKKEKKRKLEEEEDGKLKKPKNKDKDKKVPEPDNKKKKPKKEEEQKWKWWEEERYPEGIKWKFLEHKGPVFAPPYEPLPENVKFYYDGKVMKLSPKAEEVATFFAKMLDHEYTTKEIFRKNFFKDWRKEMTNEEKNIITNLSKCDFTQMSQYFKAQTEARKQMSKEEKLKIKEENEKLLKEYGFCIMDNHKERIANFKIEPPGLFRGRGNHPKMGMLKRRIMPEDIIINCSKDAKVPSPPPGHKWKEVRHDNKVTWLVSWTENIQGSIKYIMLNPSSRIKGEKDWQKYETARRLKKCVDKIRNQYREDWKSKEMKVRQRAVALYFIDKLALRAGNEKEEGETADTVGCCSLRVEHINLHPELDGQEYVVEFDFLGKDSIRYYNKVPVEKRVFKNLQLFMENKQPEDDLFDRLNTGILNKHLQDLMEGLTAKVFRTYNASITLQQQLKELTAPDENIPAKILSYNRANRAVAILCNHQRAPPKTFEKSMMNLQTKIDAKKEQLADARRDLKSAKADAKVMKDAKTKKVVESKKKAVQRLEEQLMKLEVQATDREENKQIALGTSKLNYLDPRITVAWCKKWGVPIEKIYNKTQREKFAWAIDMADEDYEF

MCF-10A = experiment: cells; type: ADME, cell-based; settings: Homo sapiens, 72 h
Description: Antiproliferative activity against human MCF-10A cells assessed as inhibition rate incubated for 72 hrs by MTT assay

[11] = Selectivity index, ratio of IC50 for human MCF-10A cells to IC50 for human MDA-MB-231 cells; settings: MCF-10A cells versus MDA-MB-231 cells
MDA-MB-231 [12] = experiment: Antiproliferative activity against human MDA-MB-231 cells assessed as inhibition rate at 100 uM incubated for 72 hrs by MTT assay; type: functional
MDA-MB-231 [13] = experiment: Induction cell cycle arrest in human MDA-MB-231 cells assessed as accumulation at S phase at 0.4 uM measured after 48 hrs by PI staining based flow cytometry (reference value: 36%); type: functional
MDA-MB-231 [14] = experiment: Induction of mitochondrial membrane disruption in human MDA-MB-231 cells assessed as mitochondrial dysfunction at 0.1 uM measured after 48 hrs by JC-1 staining based flow cytometry (reference value: 3%); type: functional
HEK293 = experiment: cells; type: ADME, cell-based; settings: Homo sapiens, HEK293, 72 h
Description: Antiproliferative activity against HEK293 cells assessed as inhibition rate incubated for 72 hrs by MTT assay

MDA-MB-231 [15] = experiment: Induction of mitochondrial membrane disruption in human MDA-MB-231 cells assessed as mitochondrial dysfunction at 0.4 uM measured after 48 hrs by JC-1 staining based flow cytometry (reference value: 3%); type: functional
MDA-MB-231 [16] = experiment: Induction of ROS generation in human MDA-MB-231 cells by fluorescent dye […] based flow cytometry; type: functional, cell-based
[17] = molecular target: T1, DNA topoisomerase 1 (Homo sapiens); experiment: Inhibition of topoisomerase 1 (unknown origin) assessed as relaxation of supercoiled plasmid pBR322 DNA upto 500 uM incubated for 15 mins by agarose gel electrophoresis; settings: dose microM <=500, time 15.0 min
HepG2 = experiment: Antiproliferative activity against human HepG2 cells assessed as inhibition rate incubated for 72 hrs by MTT assay; type: functional, cell-based; settings: HepG2, 72 h
[18] = molecular target: T1, DNA topoisomerase 1 (Homo sapiens); experiment: Inhibition of topoisomerase 1 (unknown origin) assessed as relaxation of supercoiled plasmid pBR322 DNA at 20 uM incubated for 15 mins by agarose gel electrophoresis
MDA-MB-231 [19] = experiment: Induction of apoptosis in human MDA-MB-231 cells assessed as increase in cytochrome c expression at 0.1 to 0.4 uM measured after 48 hrs by Western blot analysis; type: functional, cell-based; settings: dose 0.1-0.4 µM
Breast carcinoma cell [20] = experiment: Antitumour activity against human TNBC breast carcinoma cell tissue xenografted PDTX SCID mouse model assessed as reduction in cancer cell density at 5 to 20 mg/kg treated for 7 days; type: functional, organism-based; settings: dose 5-20 mg/kg, time 7.0 day
MDA-MB-231 [21] = experiment: Antiproliferative activity against human MDA-MB-231 cells transfected with siRNA-Top1 assessed as cell viability by MTT assay; type: functional, cell-based
LoVo = experiment: Antiproliferative activity against human LoVo cells assessed as inhibition rate incubated for 72 hrs by MTT assay; type: functional, cell-based

## O=C1c2cc(Cl)ccc2OC2c3oc4ccc(O)cc4c3CCN12 (stereo not drawn)
MDA-MB-231 [1]
  Activity: 24.7%
4T1
  pIC50: 6.14
MDA-MB-435
  pIC50: 6.38
HCT-116
  pIC50: 6.12
MDA-MB-231 [2]
  pIC50: 6.44
MDA-MB-231 [3]
  Activity: Active
MDA-MB-231 [4]
  inhibition: Active
MDA-MB-231 [5]
  Activity: 7.2%
MDA-MB-231 [6]
  Activity: Active
Breast carcinoma cell [7]
  Activity: Active
MDA-MB-231 [8]
  Activity: 68.1%
MDA-MB-231 [9]
  Activity: Active
[10]
  inhibition: Active
MCF-10A
  pIC50: 5.17
[11]
  selectivity ratio: 18.8
MDA-MB-231 [12]
  inhibition at 100 µM: 95.8%
MDA-MB-231 [13]
  Activity: 22.9%
MDA-MB-231 [14]
  Activity: 12.2%
HEK293
  pIC50: 4.45
MDA-MB-231 [15]
  Activity: 25%
MDA-MB-231 [16]
  Activity: Active
[17]
  Activity: inactive
HepG2
  pIC50: 5.33
[18]
  inhibition: Active
MDA-MB-231 [19]
  Activity: Active
Breast carcinoma cell [20]
  Activity: Active
MDA-MB-231 [21]
  pIC50: 5.01
LoVo
  pIC50: 5.14

— ChEMBL document CHEMBL5029185, “Discovery of Novel Polycyclic Heterocyclic Derivatives from Evodiamine for the Potential Treatment of Triple-Negative Breast Cancer” (J Med Chem, 2021)
